Our source for the IC50 and Activity values is ChEMBL document CHEMBL5385844, “Discovery of novel imidazole chemotypes as isoform-selective JNK3 inhibitors for the treatment of Alzheimer's disease” (Eur J Med Chem, 2023).

The source made the active and inactive calls. The calls are words filed in the database; no cut-off is given here.

The target in experiment [1] is Mitogen-activated protein kinase 10 (Homo sapiens, UniProt P53779). Put plainly: Inhibition of human JNK3 incubated for 40 mins in presence of ATP and [gamma33P-ATP] by scintillation counting method.
Chain of Mitogen-activated protein kinase 10 (P53779 whole entry): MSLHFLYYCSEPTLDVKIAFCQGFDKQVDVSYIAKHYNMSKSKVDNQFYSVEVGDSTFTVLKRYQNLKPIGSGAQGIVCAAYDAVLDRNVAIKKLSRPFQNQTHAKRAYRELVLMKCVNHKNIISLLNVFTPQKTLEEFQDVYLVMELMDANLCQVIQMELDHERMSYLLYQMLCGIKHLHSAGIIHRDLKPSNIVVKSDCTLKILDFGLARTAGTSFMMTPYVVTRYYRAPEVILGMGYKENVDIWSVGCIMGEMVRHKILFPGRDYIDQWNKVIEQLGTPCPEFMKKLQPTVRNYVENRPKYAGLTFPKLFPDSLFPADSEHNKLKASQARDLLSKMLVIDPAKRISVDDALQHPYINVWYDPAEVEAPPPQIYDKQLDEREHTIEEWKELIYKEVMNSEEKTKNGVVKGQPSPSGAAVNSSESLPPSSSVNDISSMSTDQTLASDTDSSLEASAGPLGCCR
The target of experiment [2] is Mitogen-activated protein kinase 9 (Homo sapiens, UniProt P45984). Put plainly: Inhibition of human JNK2 incubated for 40 mins in presence of ATP and [gamma33P-ATP] by scintillation counting method.
Chain of Mitogen-activated protein kinase 9 (P45984 whole entry): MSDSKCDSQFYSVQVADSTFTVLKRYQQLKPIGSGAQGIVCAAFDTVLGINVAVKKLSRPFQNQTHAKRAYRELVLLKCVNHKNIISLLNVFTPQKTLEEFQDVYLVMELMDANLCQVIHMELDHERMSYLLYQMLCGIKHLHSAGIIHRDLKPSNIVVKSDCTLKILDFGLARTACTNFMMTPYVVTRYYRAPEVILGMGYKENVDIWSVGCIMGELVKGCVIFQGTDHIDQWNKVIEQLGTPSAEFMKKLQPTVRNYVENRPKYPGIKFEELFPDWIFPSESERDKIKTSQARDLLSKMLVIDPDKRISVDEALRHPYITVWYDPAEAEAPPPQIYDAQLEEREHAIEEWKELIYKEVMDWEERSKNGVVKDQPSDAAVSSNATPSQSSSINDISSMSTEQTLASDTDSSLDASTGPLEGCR
For experiment [3], the target named is T1, Mitogen-activated protein kinase 8 (Homo sapiens, UniProt P45983). Put plainly: Inhibition of human JNK1 incubated for 40 mins in presence of ATP and [gamma33P-ATP] by scintillation counting method.
T1 sequence (P45983 whole entry): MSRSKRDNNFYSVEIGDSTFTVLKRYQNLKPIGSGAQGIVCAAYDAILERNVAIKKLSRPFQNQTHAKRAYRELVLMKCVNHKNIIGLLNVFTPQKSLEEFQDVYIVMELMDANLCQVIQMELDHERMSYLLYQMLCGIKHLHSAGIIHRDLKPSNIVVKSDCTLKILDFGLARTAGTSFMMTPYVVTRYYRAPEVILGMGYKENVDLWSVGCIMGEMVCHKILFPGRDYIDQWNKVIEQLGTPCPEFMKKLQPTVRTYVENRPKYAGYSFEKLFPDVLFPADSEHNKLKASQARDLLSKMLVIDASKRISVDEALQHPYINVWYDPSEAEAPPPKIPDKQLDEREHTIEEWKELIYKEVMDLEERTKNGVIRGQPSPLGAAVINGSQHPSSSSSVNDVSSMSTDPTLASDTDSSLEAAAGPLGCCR
Experiment [4] has as its target T1, Mitogen-activated protein kinase 8. The experiment can be described thus: Inhibition of JNK1 (unknown origin) assessed as incorporation of 33P-ATP.
The next experiment relates to Cortical neurone. Put plainly: Neuroprotective activity against Amyloid beta (1 to 42)-induced toxicity in rat cortical neuron assessed as cell viability measured after 24 to 48 hrs by MTT assay. It counts as functional, cell-based. The note with it: time 24-48 hrs. On the technique in general: Formazan colour is commonly taken as a measure of viable cells.

Consider `N#CCc1cnc(-c2ccc(F)c(C(F)(F)F)c2)n1-c1ccnc(N[C@H]2CCCN(C(=O)C3CC3)C2)n1`, for which the IC50 (commonly the concentration needed to halve the response being measured) in experiment [1] (read-out: IC50) was 3.28 µM.
Take `N#CCc1cnc(-c2ccc3ccccc3c2)n1-c1ccnc(N[C@H]2CCCNC2)n1`: the IC50 in experiment [1] (read-out: IC50) was greater than 10 µM.
In the case of `C[C@@H](O)CNc1nccc(-n2c(CC#N)cnc2-c2ccc3ccccc3c2)n1`, in experiment [1] (read-out: IC50), the IC50 worked out at 4.96 µM.
For `C[C@@H](O)CNc1nccc(-n2c(CC#N)cnc2-c2ccc3ccccc3n2)n1`, the IC50 in experiment [1] (read-out: IC50) is greater than 10 µM.
As to `N#CCc1cnc(-c2ccc3c(c2)OCO3)n1-c1ccnc(NC2CCOCC2)n1`, in experiment [1] (read-out: IC50), the IC50 was 8.56 µM.
As to `N#CCc1cnc(-c2ccc(F)c(C(F)(F)F)c2)n1-c1ccnc(NC2CCOCC2)n1`, the IC50 in experiment [1] (read-out: IC50) was found to be 0.421 µM.
As for `CC(C)(C)C(=O)N1CCC[C@H](Nc2nccc(-n3c(CC#N)cnc3-c3ccc(Cl)c(Cl)c3)n2)C1`, the IC50 came to 0.081 µM in experiment [2], 0.008 µM in experiment [1] (read-out: IC50) and 0.444 µM in experiment [3].
For `NC(=O)N1Cc2nc(-c3ccc(Cl)c(Cl)c3)n(-c3ccnc(N[C@@H]4CCN(C(=O)C5CC5)C4)n3)c2C1`, in experiment [4], the IC50 was greater than 3 µM.
`N#CCc1cnc(-c2ccc3ccccc3c2)n1-c1ccnc(Nc2cccc(C(=O)C3CC3)c2)n1`: the values for the IC50 in experiment [2], in experiment [1] (read-out: IC50) and in experiment [3] were 0.287 µM, 0.007 µM and 1.73 µM, respectively.
Take `N#CCc1cnc(C2=CC3OCCOC3C=C2)n1-c1ccnc(N[C@H]2CCCNC2)n1` (stereo partly specified): in experiment [1] (read-out: IC50), the IC50 was greater than 10 µM.
In the case of `N#CCc1cnc(-c2ccc3ccccc3c2)n1-c1ccnc(N[C@@H]2CCCN(C(=O)C3CC3)C2)n1`, the IC50 was determined as 0.0661 µM in experiment [2], 0.005 µM in experiment [1] (read-out: IC50) and 0.211 µM in experiment [3].
On to `N#CCc1cnc(-c2ccc3c(c2)OCCO3)n1-c1ccnc(NC2CCOCC2)n1`, for which the IC50 in experiment [1] (read-out: IC50) is greater than 10 µM.
Consider `N#CCc1cnc(-c2ccc3ccccc3n2)n1-c1ccnc(NC2CCOCC2)n1`, for which, in experiment [1] (read-out: IC50), the IC50 is 13.5 µM.
As to `C[C@@H](O)CNc1nccc(-n2c(CC#N)cnc2-c2ccc3c(c2)OCCO3)n1`, the IC50 in experiment [1] (read-out: IC50) was determined as 9.84 µM.
With `N#CCc1cnc(-c2ccc(Cl)c(Cl)c2)n1-c1ccnc(NC2CCOCC2)n1`, the IC50 in experiment [1] (read-out: IC50) worked out at 0.29 µM.
With `N#CCc1cnc(-c2ccc(F)c(C(F)(F)F)c2)n1-c1ccnc(N[C@H]2CCCNC2)n1`, the IC50 result in experiment [1] is reported as “Not Active”.
Take `N#CCc1cnc(-c2ccc(F)c(C(F)(F)F)c2)n1-c1ccnc(NC2CCCCC2)n1`: the IC50 in experiment [1] (read-out: IC50) was 10 µM.
`Oc1ccc(/C=C/c2cc(O)cc(O)c2)cc1`: the outcome in the experiment on Cortical neurone was Active.
Turning to `C[C@@H](O)CNc1nccc(-n2c(CC#N)cnc2-c2ccc(Cl)c(Cl)c2)n1`, in experiment [1] (read-out: IC50), the IC50 amounted to 6.76 µM.
Still for that read-out and setting: for `N#CCc1cnc(-c2ccc3ccccc3c2)n1-c1ccnc(NC2CCCCC2)n1` the value was 0.142 µM.
